# Reference: publication PMC8993905, “Functional control of a 0.5 MDa TET aminopeptidase by a flexible loop revealed by MAS NMR” (Nature Communications, 2022)
# Assays:
# TET2 [1] = target: T1, TET2 (Pyrococcus horikoshii, UniProt O59196); experiment: MAS NMR chemical-shift perturbation; type: binding; settings: active site, non-covalent; isotope-labelled protein, ca. 28 °C
# T1 construct: gene frvX; full length, 353 residues per subunit, pET41c in E. coli BL21(DE3), no tag mentioned (heat step, Resource Q, Superdex 200), 39 kDa subunit, 468 kDa homododecamer, two Zn per active site
# TET2 [2] = target: T2, TET2 (Pyrococcus horikoshii, UniProt O59196, H123F); experiment: MAS NMR 1H-15N chemical-shift perturbation; type: binding; settings: active site, non-covalent; isotope-labelled protein, ca. 28 °C
# T2 construct: gene frvX; full length, 353 residues per subunit, pET41c in E. coli BL21(DE3), no tag mentioned (heat step, Resource Q, Superdex 200), 39 kDa subunit, 468 kDa homododecamer, two Zn per active site
# TET2 [3] = target: T1, TET2; experiment: H-Leu-pNA hydrolysis, absorbance at […] nm; type: biochemical; settings: 6.4 mM H-Leu-pNA, 1, 5 or 20 mM histidine, pH 7.5, 50 °C
# TET2 [4] = target: T3, TET2 (Pyrococcus horikoshii, UniProt O59196, H123Y); experiment: H-Leu-pNA hydrolysis, absorbance at […] nm; type: biochemical; settings: 6.4 mM H-Leu-pNA, 1, 5 or 20 mM histidine, pH 7.5, 50 °C
# T3 construct: gene frvX; full length, 353 residues per subunit, pET41c in E. coli BL21(DE3), no tag mentioned (heat step, Resource Q, Superdex 200), 39 kDa subunit, 468 kDa homododecamer, two Zn per active site
# TET2 [5] = target: T1, TET2; experiment: MAS NMR 1H-15N peak doubling (G92, D94, H323); type: binding; settings: active site; 50% (vol/vol) MPD, pH 7.6, ca. 28 °C; slow exchange
# T1 sequence (O59196 whole entry): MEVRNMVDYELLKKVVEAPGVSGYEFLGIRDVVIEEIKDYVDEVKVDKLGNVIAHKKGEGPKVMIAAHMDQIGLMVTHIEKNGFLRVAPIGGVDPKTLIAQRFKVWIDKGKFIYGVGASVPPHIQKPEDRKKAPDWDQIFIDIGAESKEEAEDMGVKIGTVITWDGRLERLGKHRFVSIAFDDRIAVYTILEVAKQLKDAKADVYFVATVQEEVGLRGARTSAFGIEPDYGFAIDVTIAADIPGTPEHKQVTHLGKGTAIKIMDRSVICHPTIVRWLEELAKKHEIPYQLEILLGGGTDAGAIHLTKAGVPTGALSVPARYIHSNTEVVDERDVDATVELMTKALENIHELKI
# T2 sequence (O59196 whole entry H123F): as the sequence (O59196 whole entry) above, with H123F counted along it
# T3 sequence (O59196 whole entry H123Y): as the sequence (O59196 whole entry) above, with H123Y counted along it
structure (smiles),measurement,setting,value
CC(C)C[C@@H](N)[C@H](O)C(=O)N[C@H](C(=O)N[C@H](C(=O)N[C@@H](CC(=O)O)C(=O)O)C(C)C)C(C)C [amastatin],MAS NMR chemical-shift perturbation,TET2 [1],MAS NMR experiments reveal the chemical-shift perturbations induced by this tightly bound inhibitor
same,MAS NMR 1H-15N chemical-shift perturbation,TET2 [2],We ensured that amastatin tightly binds to the H123F mutant
N[C@@H](Cc1c[nH]cn1)C(=O)O [histidine],activity with added free histidine,TET2 [3],abolishes the function of WT and mutant TET2
same,activity with added free histidine,TET2 [4],"addition of free His not only does not increase the activity, but abolishes the function"
"CC(O)CC(C)(C)O (centres unmarked) [2-methyl-2,4-pentanediol]","MAS NMR 1H-15N peak doubling (G92, D94, H323)",TET2 [5],"2-methyl-2,4-pentanediol (MPD), a common crystallization agent used also to obtain solid-state NMR samples, interacts"
